Earlier results as cited in patent US20060148897A1, “Method for sterilization using in situ gelling materials” (priority 2002, published 2006).

Conditions: amine group (alpha amine; lysine: side chain epsilon amine)

Row | SMILES | pK
1 | NC(=O)C[C@H](N)C(=O)O [asparagine] | 8.8
2 | NCCCC[C@H](N)C(=O)O [lysine] | 10.80
